# Test results: patent publication US5747505A, “Heterocyclic aryl-, alkyl- and cycloalkylacetamides” (Bayer Aktiengesellschaft, priority 1995, dated 1998)
# Tested on: release of ApoB-100-associated lipoproteins from HepG2 cells
# Test: Inhibition of the release of ApoB-100-associated lipoproteins from cultivated liver cells (HepG2), immunoassay for human LDL
# Type: cell-based
# Settings: substance concentration at which light absorption (450 nm) is inhibited by 50% vs solvent control
# Protocol: 1. Inhibition of the release of ApoB-100-associated lipopnoteins
# The test for detecting the inhibition of the release of ApoB-100-associatedlipoproteins-from liver cells was carried out in vitro using cultivated liver cells, preferably using cells of the human line HepG2. These cells are grown under standard conditions in medium for the culture of eukaryotic cells, preferably in RPMI 1640 with 10% foetal calf serum. HepG2 cells synthesize and secrete into the culture supernatant ApoB-100-associated lipoprotein particles which in principle are constructed similarly to the VLDL and LDL particles which are to be found in the plasma.
# These particles can be detected using an immunoassay for human LDL. This immunoassay is carried out using antibodies which have been induced against human LDL in the rabbit under standard conditions. The anti-LDL antibodies (rabbit anti-LDL Ab) were purified by affinity chromatography on an immunosorbent using human LDL. These purified rabbit anti-LDL Ab are adsorbed on the surface of plastic. Expediently, this adsorption takes place on the plastic surface of microtiter plates having 96 wells, preferably on MaxiSorp plates. If ApoB-100-associated particles are present in the supernatant of Hep-G2 cells, these can bind to the insolubilized rabbit anti-LDL Ab and an immune complex is formed which is bound to the plastic surface. Non-bound proteins are removed by washing. The immune complex on the plastic surface is detected using monoclonal antibodies which have been induced against human LDL and purified according to standard conditions. These antibodies were conjugated with the enzyme peroxidase. Peroxidase converts the colourless substrate TMB into a coloured product in the presence of H2 O2. After acidification of the reaction mixture with H2 SO4, the specific light absorption at 450 nm is determined, which is a measure of the amount of ApoB-100-associated particles which have been secreted into the culture supernatant by the HepG2 cells.
# The IC50 value indicates at which substance concentration the light absorption is inhibited by 50% in comparison with the control (solvent control without substance).
row,IC50 [nM],SMILES
1,195,"O=C(N[C@@H](CO)c1ccccc1)C(c1ccc(OCc2ccc3ccccc3n2)s1)C1CCCCCC1 (stereo partly drawn) [Example 1, 2-Cycloheptyl-N-(2-hydroxy-1(R)-phenylethyl)-2-[5-(quinoline-2-ylmethoxy)thiophen-2-yl]acetamide]"
2,> 2000,O=C(NCc1ccccc1)C(c1ccccc1)N1CCC(OCc2ccc3ccccc3n2)CC1 (stereo not shown) [Example 2]
3,71,O=C(N[C@@H](CO)c1ccccc1)C(c1ccc(OCc2ccccc2Cl)cn1)C1CCCCCC1 (stereo partly shown) [Example 3]
4,11,O=C(NCc1ccccc1)C(c1ccc(OCc2ccccc2Cl)cn1)C1CCCCCC1 (stereo not shown) [Example 4]
5,622,O=C(N[C@@H](CO)c1ccccc1)C(c1ccc(OCc2ccc3ccccc3n2)cn1)C1CCCC1 (stereo partly shown) [Example 5]
6,255,O=C(N[C@@H](CO)c1ccccc1)C(c1ccc(OCc2ccc3ccccc3n2)cn1)C1CCCCCC1 (stereo partly shown) [Example 6]
7,1880,O=C(N[C@@H](CO)c1ccccc1)C(c1ccc2cc(OCc3ccc4ccccc4n3)ccc2c1)C1CCCC1 (stereo partly shown) [Example 8]
8,> 2000,O=C(NCC1CCCCC1)C(c1ccc2cc(OCc3ccc4ccccc4n3)ccc2c1)C1CCCC1 (stereo not shown) [Example 9]
9,> 2000,COc1cc(CNC(=O)C(c2ccc3cc(OCc4ccc5ccccc5n4)ccc3c2)C2CCCC2)ccc1O (stereo not shown) [Example 10]
10,> 2000,O=C(N[C@H](CO)c1ccccc1)C(c1ccc2cc(OCc3ccc4ccccc4n3)ccc2c1)C1CCCC1 (stereo partly shown) [Example 11]
11,> 2000,Cc1ccc(CNC(=O)C(c2ccc3cc(OCc4ccc5ccccc5n4)ccc3c2)C2CCCC2)cc1 (stereo not shown) [Example 12]
12,235,O=C(N[C@@H](CO)c1ccccc1)[C@H](c1ccc(OCc2ccc3ccccc3n2)cn1)C1CCCCCC1 [Example 13]
13,235,O=C(N[C@@H](CO)c1ccccc1)[C@@H](c1ccc(OCc2ccc3ccccc3n2)cn1)C1CCCCCC1 [Example 14]
